From PMC9323974, “Palladium(II) Complexes of Substituted Salicylaldehydes: Synthesis, Characterization and Investigation of Their Biological Profile” (Pharmaceuticals, 2022)

Key:
CT DNA = CT DNA binding by UV-vis spectroscopy; design: species or system calf; conditions: Wolfe–Shimer equation
Procedure: page 8: […] spectroscopy, viscosity measurements and fluorescence emission spectroscopy studies. […] UV-vis spectroscopy was used for the evaluation of the interaction of the compounds with CT DNA, and specifically the possible binding modes of the compounds to CT DNA. Control experiments with DMSO were performed and no changes in the spectra of CT DNA were observed. In order to determine the binding mode, the UV-vis spectra of the compounds were […] concentrations of CT DNA for diverse r (r = [complex]/[DNA]) values. Effective use of the changes […] compounds were calculated by the Wolfe-[…] equation (eq. […] εf) versus [DNA]: (eq. S1) where [DNA] = the concentration of DNA in base pairs, ε f= the extinction coefficient for the free compound at the corresponding λmax, εA = Aobsd/[compound] and εb= the extinction coefficient for the compound in the fully bound form. K b is given by the ratio of slope to the y intercept in plots [DNA]/(εA-εf) versus [DNA]. S3.2 CT DNA-binding studies by viscosity measurements […] presence of increasing amounts of the compounds. The experiments were executed at room temperature and the measurements are devised in a plot (η/η 0)1/3 versus r, where η = the viscosity of DNA in the presence of the compound, and η0 = the viscosity of neat DNA in buffer solution. […] In order to determine and confirm the DNA-binding mode of the compounds, a competitive study with EB as an intercalating marker is performed by fluorescence emission spectroscopy. Therefore, the EB-displacing ability of the compounds from its EB-DNA conjugate was examined. […] solution (150 mM NaCl and 15 mM trisodium citrate at pH 7.0). The potential intercalation of the compounds between the DNA-bases was studied by the addition of a certain amount of the 8 (1 picture or pasted object on this page, not shown here)

BSA = target: T1, BSA (Bos taurus, UniProt P02769); test: BSA fluorescence quenching; type: binding, bovine; conditions: for ΔΙ/Ιο (%) BSA fluorescence quenching: BSA 3 μM; for K BSA-binding constant: Scatchard; for relative BSA-fluorescence emission intensity, % of the initial: final value
T1 construct: purchased Sigma-Aldrich Co
Procedure: S4 Interaction with serum albumins
S4.1 Study of the affinity for serum albumins
The albumin–binding study for the compounds was carried out by fluorescence emission quenching experiments using BSA (3 μM) or HSA (3 μM) in buffer solution (15 mM trisodium citrate and 150 mM NaCl at pH 7.0). The tested compounds were used as quenchers with gradually increasing concentrations to monitor the quenching of the emission intensity of tryptophan residues of BSA at 345 nm or HSA at 340 nm [S6]. The fluorescence emission spectra were recorded between 300–500 nm with excitation wavelength of 295 nm. All the experiments were conducted at room temperature. The fluorescence spectra of the compounds were recorded under the same experimental conditions and presented a low–intensity emission band in the region 395–415 nm.
Consequently, the SA fluorescence emission spectra were modified properly, by subtracting the spectra of the compounds, and quantitative studies followed.
The extent of the inner–filter effect can be roughly estimated with the following formula: […]
where Icorr= corrected intensity, Imeas= the measured intensity, c = the concentration of the quencher, d = the cuvette length (1 cm), ε(λexc) and ε(λem) = the ε of the quencher at the excitation and the emission wavelength, respectively, as calculated from the UV –vis spectra of the complexes [S 8].
The interaction of the quencher (i.e. compounds) with serum albumins [S6] was studied through the Stern–Volmer and Scatchard equations [S6] and corresponding graphs. The values of the respective Stern–Volmer constant KSV (M–1), the quenching constant k q (M–1s–1), the SA– binding constant K (M–1) and the number of binding sites per albumin (n) were calculated.
According to Stern–Volmer quenching equation [S6] (eq. S2), where I 0 = the initial tryptophan fluorescence intensity of SA, I = the tryptophan fluorescence intensity of SA after the addition of the quencher, kq = the quenching rate constants of SA, K SV = the dynamic quenching constant, τ0 = the average lifetime of SA without the quencher, [Q] = the concentration of the quencher), the Stern –Volmer constant (KSV, M–1) can be obtained by the slope of the diagram I0/I versus [Q]. Taking τ0 = 10–8 s as fluorescence lifetime of tryptophan in SA [S2], the quenching constant (kq, M–1s–1) is calculated from equation S3.
From the Scatchard equation (eq. S5) [S6]: […]
(1 picture or pasted object on this page, not shown here) […]
where n = the number of binding sites per albumin and K = the SA–binding constant. The K constant (M−1) is calculated from the slope in plots (ΔI/I0)/[Q] versus (ΔI/I0) and n is given by the ratio of y intercept to the slope [S9]. […]

T1 sequence (P02769 25-607): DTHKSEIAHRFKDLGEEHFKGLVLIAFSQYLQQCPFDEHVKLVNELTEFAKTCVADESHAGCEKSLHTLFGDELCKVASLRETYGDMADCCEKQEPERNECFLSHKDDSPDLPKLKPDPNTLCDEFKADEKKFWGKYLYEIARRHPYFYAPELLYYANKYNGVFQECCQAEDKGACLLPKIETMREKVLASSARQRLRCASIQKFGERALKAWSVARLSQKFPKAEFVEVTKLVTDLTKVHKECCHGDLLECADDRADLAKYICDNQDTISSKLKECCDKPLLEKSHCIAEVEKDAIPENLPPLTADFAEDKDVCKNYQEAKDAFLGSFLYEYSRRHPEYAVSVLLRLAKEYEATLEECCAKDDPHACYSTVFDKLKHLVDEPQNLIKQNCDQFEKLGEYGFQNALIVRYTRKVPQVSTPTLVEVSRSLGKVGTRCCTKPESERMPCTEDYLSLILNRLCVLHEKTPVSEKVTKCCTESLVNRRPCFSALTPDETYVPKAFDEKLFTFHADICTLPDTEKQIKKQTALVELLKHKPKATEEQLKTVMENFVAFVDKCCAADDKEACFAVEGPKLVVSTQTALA

CCN(CC)c1ccc(C=O)c([O][Pd][O]c2cc(N(CC)CC)ccc2C=O)c1 [Complex 1, [Pd(4-Et2N-salo)2]]
Kb (DNA-binding constant) (CT DNA): 3.66 (±0.22) × 10^5 M^−1 | kq BSA-quenching constant (BSA): 5.72 (±0.44) × 10^13 M^−1 s^−1 | ΔΙ/Ιο (%) BSA fluorescence quenching (BSA): 92.9% | K BSA-binding constant (BSA): 1.08 (±0.06) × 10^5 M^−1 | relative BSA-fluorescence emission intensity, % of the initial (BSA): 7.2%

O=Cc1cc(Cl)cc(Cl)c1[O-].O=Cc1cc(Cl)cc(Cl)c1[O-].[Pd+2] [Complex 3, [Pd(3,5-diCl-salo)2]]
Kb (DNA-binding constant) (CT DNA): 1.90 (±0.12) × 10^6 M^−1 | kq BSA-quenching constant (BSA): 1.11 (±0.04) × 10^14 M^−1 s^−1 | ΔΙ/Ιο (%) BSA fluorescence quenching (BSA): 97.2% | K BSA-binding constant (BSA): 7.82 (±0.24) × 10^5 M^−1 | relative BSA-fluorescence emission intensity, % of the initial (BSA): 2.8%

COc1ccc(C=O)c([O-])c1.COc1ccc(C=O)c([O-])c1.[Pd+2] [Complex 5, [Pd(4-OMe-salo)2]]
Kb (DNA-binding constant) (CT DNA): 1.27 (±0.10) × 10^6 M^−1 | kq BSA-quenching constant (BSA): 2.17 (±0.09) × 10^14 M^−1 s^−1 | ΔΙ/Ιο (%) BSA fluorescence quenching (BSA): 97.2% | K BSA-binding constant (BSA): 9.18 (±0.27) × 10^5 M^−1 | relative BSA-fluorescence emission intensity, % of the initial (BSA): 2.8%

CCN(CC)c1ccc(C=O)c(O)c1 [4-Et2N-saloH, 4-diethylamino-salicylaldehyde, reference compound]
Kb (DNA-binding constant) (CT DNA): 5.06 (±0.14) × 10^5 M^−1 | Kd (BSA): 2.4 µM | kq BSA-quenching constant (BSA): 1.41 (±0.06) × 10^13 M^−1 s^−1

O=Cc1cc(Br)cc(Br)c1[O][Pd][O]c1c(Br)cc(Br)cc1C=O [Complex 2, [Pd(3,5-diBr-salo)2]]
Kb (DNA-binding constant) (CT DNA): 3.18 (±0.21) × 10^5 M^−1 | kq BSA-quenching constant (BSA): 2.11 (±0.08) × 10^14 M^−1 s^−1 | ΔΙ/Ιο (%) BSA fluorescence quenching (BSA): 97.5% | K BSA-binding constant (BSA): 1.50 (±0.06) × 10^6 M^−1 | relative BSA-fluorescence emission intensity, % of the initial (BSA): 2.5%

O=Cc1cc(F)ccc1O [5-F-saloH, 5-fluoro-salicylaldehyde, reference compound]
Kb (DNA-binding constant) (CT DNA): 8.37 (±0.47) × 10^4 M^−1 | Kd (BSA): 23.2 µM | kq BSA-quenching constant (BSA): 1.98 (±0.08) × 10^12 M^−1 s^−1

O=Cc1cc(F)ccc1[O-].O=Cc1cc(F)ccc1[O-].[Pd+2] [Complex 4, [Pd(5-F-salo)2]]
Kb (DNA-binding constant) (CT DNA): 2.84 (±0.14) × 10^5 M^−1 | kq BSA-quenching constant (BSA): 2.24 (±0.14) × 10^13 M^−1 s^−1 | ΔΙ/Ιο (%) BSA fluorescence quenching (BSA): 85.7% | K BSA-binding constant (BSA): 8.79 (±0.13) × 10^4 M^−1 | relative BSA-fluorescence emission intensity, % of the initial (BSA): 14.3%
